In the NIST ThermoML archive (doi:10.1021/je800571y):

Test: xn = mol fraction of the nth substance listed
Conditions: 101 kPa, Liquid

CCC(C)=O [butanone] + CCC(C)O
Conditions	mass density, 293.15 K [kg/m3]	mass density, 298.15 K [kg/m3]	mass density, 303.15 K [kg/m3]	mass density, 308.15 K [kg/m3]	mass density, 313.15 K [kg/m3]	viscosity, 293.15 K [mPa·s]	viscosity, 298.15 K [mPa·s]	viscosity, 303.15 K [mPa·s]	viscosity, 308.15 K [mPa·s]	viscosity, 313.15 K [mPa·s]
x1 = 0.0684	806.36	802.16	798.67	793.88	789.68	2.91	2.429	2.037	1.692	1.499
x1 = 0.1365	806.25	801.98	798.39	793.58	789.29	2.34	2.007	1.649	1.339	1.228
x1 = 0.2044	806.14	801.79	798.1	793.28	788.9	1.87	1.613	1.352	1.054	1.003
x1 = 0.2721	806.03	801.61	797.82	792.98	788.51	1.491	1.299	1.074	0.8161	0.8187
x1 = 0.3395	805.92	801.43	797.54	792.68	788.13	1.183	1.051	0.8484	0.6282	0.6806
x1 = 0.4066	805.81	801.25	797.26	792.39	787.74	0.9558	0.8537	0.6826	0.5076	0.5709
x1 = 0.4735	805.71	801.07	796.98	792.09	787.36	0.7693	0.687	0.5613	0.4126	0.4786
x1 = 0.5402	805.61	800.9	796.71	791.8	786.97	0.6236	0.56	0.4526	0.3601	0.4206
x1 = 0.6066	805.5	800.72	796.43	791.51	786.59	0.5287	0.48	0.3944	0.326	0.3681
x1 = 0.6727	805.4	800.55	796.16	791.22	786.21	0.4645	0.4282	0.3468	0.3051	0.3429
x1 = 0.7387	805.3	800.38	795.89	790.93	785.83	0.4412	0.3922	0.3077	0.309	0.3191
x1 = 0.8044	805.21	800.1	795.62	790.64	785.45	0.4486	0.362	0.3031	0.3112	0.2915
x1 = 0.8698	805.11	800.04	795.35	790.35	785.07	0.4468	0.3482	0.3071	0.3186	0.2805
x1 = 0.935	805.01	799.87	795.08	790.06	784.7	0.42	0.3	0.2786	0.2966	0.2718
x1 = 1	804.92	799.7	794.81	789.78	784.32	0.3956	0.2828	0.2666	0.2601	0.2545
